Experimental data: patent US20020198208A1, “MEDICINAL PREPARATION AND PROCESS FOR MANUFACTURING THEREOF” (priority 2000, published 2002)
Where two headings read alike, the source gives them in different places.

Columns and labels:
macrophages [1] = settings: cited from earlier work
[2] = cited from earlier work
[3] = prior-art preparations, powder; cited from earlier work
[4] = Clinical course of Patient I. (prostatic adenoma); type: in vivo, human
Method: Patient one.
Was hospitalized with complaints of difficult urination and urges to urinate.
Diagnosis: stage 1I prostatic adenoma.
Two courses of therapy with […] sodium salt dihydrate were performed by injections for 20 and 15 injections, respectively, with a 30-day interval between the injections. Doses of the preparation were from 100 to 500 mg in 1-5 ml of distilled water correspondingly.

[5] = Patient S., after therapy (300 mg injection 5 days, then 100 mg perorally 2 times a day)
[6] = Patient S.
macrophages [7] = settings: patients with impaired cellular immunity
[8] = doses 20-1500 mg
macrophages [9] = settings: inflammatory diseases
[10] = Patient G.
Method: Patient two.
Was hospitalized with diagnosis of erysipelas of the left forearm, edema, and exacerbation of psoriasis (temperature at hospitalization was 39.9° C.).
Tameril was injected daily in a single dose of 200 mg in 2 ml water.

[11] = Patient S., after therapy (300 mg injection 5 days, then 100 mg perorally 2 times a day); remark: listed apart in the source
[12] = erysipelas and psoriasis, after therapy (200 mg injection daily, then 100 mg for 5 days)

Structure (SMILES): Nn1[nH]c(=O)c2ccccc2c1=O.O.O.[Na] [2-amino, 2-amino-1,2,3,4-tetrahydrophthalazine-1,4-dione sodium salt dihydrate]
- effect on macrophages (macrophages [1]; inflammatory processes): inactivates macrophages for several hours
- effect on macrophages (macrophages [1]; patients with impaired cellular immunity, e.g. malignant neoplasms): activates macrophages, interleukins and other acute-phase proteins
- side effects and allergic reactions ([2]; in vivo): does not cause side effects and allergic reactions
- effect of longterm treatment ([2]; patients with chronic and other diseases): causes tolerance and decreases the efficiency of therapy
- solubility in water [3]: easily soluble in water
- size of adenoma ([4]; after the first course of 20 injections): decreased
- size of adenoma ([4]; after the second course of 15 injections): remained without further positive dynamic

Structure (SMILES): Nc1cccc2c(=O)[nH][nH]c(=O)c12.[Na] [Tamerit, 5-amino-2,3-dihydrophthalazine-1,4-dione sodium salt]
- ESR [5]: 13.0 mm/h
- Eosinophils [5]: 3.0%
- Erythrocytes [5]: 5e+12 L⁻¹
- Hemoglobin [5]: 147 g/L
- Leukocytes [5]: 5.5e+09 L⁻¹
- Lymphocytes [5]: 23.0%
- Monocytes [5]: 6.0%
- Neutrophils: Segmented [5]: 74.0%
- Neutrophils: Stab [5]: 6.0%
- state of the patient ([6]; 10 days after beginning of the therapy): satisfactory state
- state of the patient (cough, temperature) ([6]; three days after beginning of the therapy): cough disappeared, and temperature returned to normal
- effect on T-lymphocytes (macrophages [7]): initiates specific reactions of T-lymphocytes
- effect on macrophages (macrophages [7]; e.g. malignant neoplasms, evident by release of TNF, interleukins, other acute-phase proteins): causes activation of macrophages
- state of the patient (urination) ([4]; 10 daily injections of 200 mg after the 2-amino courses): urination was normalized
- side effects and allergic reactions [8]: does not cause side effects and allergic reactions
- contents of TNF and acute-phase proteins (macrophages [9]): decreasing the contents of TNF and acute-phase proteins
- function of neutrophilic granulocytes (macrophages [9]): enhances super-oxidizing function and phagocytic activity of neutrophilic granulocytes
- time to disappearance of edema and hyperemia of the left forelimb ([10]; 200 mg injected daily): 4 days
- state of the patient ([10]; after 200 mg daily then 100 mg injections for 5 days): satisfactory state
- B-lymphocytes [10, 12]: 25.0%
- ESR [10, 12]: 16.0 mm/h
- Eosinophils [10, 12]: 4.0%
- Erythrocytes [10, 12]: 6.9e+12 L⁻¹
- Hemoglobin [10, 12]: 148 g/L
- Immunoglobulin A [10, 12]: 2.47 g/L
- Immunoglobulin G [10, 12]: 13.7 g/L
- Immunoglobulin M [10, 12]: 2.31 g/L
- Latex phagocytosis [10, 12]: 83.4%
- Leukocytes [10, 12]: 6.2e+09 L⁻¹
- Lymphocytes [10, 12]: 26.3%
- Monocytes [10, 12]: 2.0%
- Neutrophils: Segmented [10, 12]: 65.5%
- Neutrophils: Stab [10, 12]: 5.7%
- T-helpers [10, 12]: 31.2%
- T-lymphocytes [10, 12]: 60.3%
- T-suppressors [10, 12]: 20.1%
- TNF [10, 12]: 24.4
- B-lymphocytes [11]: 24.5%
- Immunoglobulin A [11]: 2.20 g/L
- Immunoglobulin G [11]: 12.4 g/L
- Immunoglobulin M [11]: 2.21 g/L
- Latex phagocytosis [11]: 76.2%
- T-helpers [11]: 29.5%
- T-lymphocytes [11]: 67.0%
- T-suppressors [11]: 23.5%
- TNF [11]: 22.5

Structure (SMILES): Nc1cccc2c(=O)[nH][nH]c(=O)c12 [luminol, 5-amino-2,3-dihydrophthalazine-1,4-dione]
- medical effectiveness ([2]; in vivo): medically ineffective
